From the supplement of paper PMC13380429
± gives the standard deviation of the averaged measurements.

Key:
Conditions in all cases: 72 h
Vero E6 [1] = test: drug sensitivity score (DSS) for viability; higher = more toxic; extreme values may be limits of the assay
HepG2 [2] = test: as above
U2OS [3] = test: as above
Caco-2 [4] = test: as above
Vero E6 [5] = test: relative viability EC50 (midpoint between 100% and the lowest measured viability); higher = less toxic
HepG2 [6] = test: as above
U2OS [7] = test: as above
Caco-2 [8] = test: as above
Vero E6 [9] = test: cell viability relative to DMSO; higher = less toxic
HepG2 [10] = test: as above
U2OS [11] = test: as above
Caco-2 [12] = test: as above
Calu-3 [13] = test: drug sensitivity score (DSS) for viability; higher = more toxic; extreme values may be limits of the assay
Calu-3 [14] = test: cell viability relative to DMSO; higher = less toxic
Calu-3 [15] = test: relative viability EC50 (midpoint between 100% and the lowest measured viability); higher = less toxic

Structure (SMILES) | drug sensitivity score (Vero E6 [1]) | drug sensitivity score (HepG2 [2]) | drug sensitivity score (U2OS [3]) | drug sensitivity score (Caco-2 [4]) | relative viability EC50 (Vero E6 [5]) [µM] | relative viability EC50 (HepG2 [6]) [µM] | relative viability EC50 (U2OS [7]) [µM] | relative viability EC50 (Caco-2 [8]) [µM] | cell viability (Vero E6 [9]; 1 nM) [%] | cell viability (Vero E6 [9]; 10 nM) [%] | cell viability (Vero E6 [9]; 100 nM) [%] | cell viability (Vero E6 [9]; 1000 nM) [%] | cell viability (Vero E6 [9]; 10000 nM) [%] | cell viability (HepG2 [10]; 1 nM) [%] | cell viability (HepG2 [10]; 10 nM) [%] | cell viability (HepG2 [10]; 100 nM) [%] | cell viability (HepG2 [10]; 1000 nM) [%] | cell viability (HepG2 [10]; 10000 nM) [%] | cell viability (U2OS [11]; 1 nM) [%] | cell viability (U2OS [11]; 10 nM) [%] | cell viability (U2OS [11]; 100 nM) [%] | cell viability (U2OS [11]; 1000 nM) [%] | cell viability (U2OS [11]; 10000 nM) [%] | cell viability (Caco-2 [12]; 1 nM) [%] | cell viability (Caco-2 [12]; 10 nM) [%] | cell viability (Caco-2 [12]; 100 nM) [%] | cell viability (Caco-2 [12]; 1000 nM) [%] | cell viability (Caco-2 [12]; 10000 nM) [%] | drug sensitivity score (Calu-3 [13]) | cell viability (Calu-3 [14]; 1 nM) [%] | cell viability (Calu-3 [14]; 10 nM) [%] | cell viability (Calu-3 [14]; 100 nM) [%] | cell viability (Calu-3 [14]; 1000 nM) [%] | cell viability (Calu-3 [14]; 10000 nM) [%] | relative viability EC50 (Calu-3 [15]) [µM]
C/C(=N\NC(=O)[C@@H]1C(=O)NC[C@H]1c1ccccc1)c1cccc(Br)c1 | 0 | 0 | 0 | 0 | > 10 | > 10 | > 10 | > 10 | 96.3 | 97.9 | 94 | 98.2 | 96.4 | 99.4 | 99.8 | 101 | 103 | 92.4 | 99.9 | 100 | 103 | 94.1 | 97.5 | 102 | 97.5 | 104 | 96 | 101 |  |  |  |  |  |  | 
COc1ccc(CNC(=O)/C=C/c2ccc3[nH]cc(CCN(C)C)c3c2)cc1 | 0 | 0 | 0 | 0 | > 10 | > 10 | > 10 | > 10 | 98.5 | 98 | 101 | 101 | 102 | 107 | 90.6 | 93.5 | 94 | 96.8 | 102 | 97.4 | 98.1 | 98.9 | 99.3 | 106 | 95 | 93.8 | 96.6 | 98.7 |  |  |  |  |  |  | 
COc1cc(OC2CCN(C)CC2)ccc1Nc1ncc2c(n1)n(C1CCCC1)c(=O)n2C [AZ3146] | 3.2 | 4.5 | 3.5 | 1.5 | 3.1 | 2.74 |  | > 10 | 111 | 104 | 103 | 99.4 | 41.8 | 106 | 97.9 | 102 | 96.1 | 28.8 | 100 | 104 | 101 | 92.2 | 57 | 103 | 101 | 104 | 95 | 76.8 | 3.8 | 95.5 | 87.4 | 93.6 | 84.4 | 62.4 | 
CN(C)/N=N/c1ccc(C(=O)O)cc1 [CB-10-277] | 0 | 0 | 0 | 0 | > 10 | > 10 | > 10 | > 10 | 98.7 | 98.3 | 97.6 | 97.2 | 106 | 102 | 95.9 | 113 | 102 | 105 | 96.6 | 104 | 98.1 | 99.9 | 104 | 95.8 | 97.3 | 101 | 96.6 | 102 |  |  |  |  |  |  | 
CC(C)c1ccc(-c2cc(=O)c3ccccc3o2)cc1 [MN-64] | 2.2 | 2.5 | 0.2 | 1.9 |  |  | > 10 | > 10 | 96.6 | 94.2 | 98.9 | 98 | 61.5 | 91.9 | 97.6 | 94.8 | 94.8 | 65.1 | 102 | 99.4 | 102 | 95.2 | 88.2 | 105 | 98.8 | 105 | 84.9 | 81.1 | 1.7 | 113 | 105 | 97.2 | 96.1 | 72.7 | 
O=C(NCc1cccc(O)c1)Nc1nc(-c2ccncc2)cs1 [RKI-1447] | 5.05 ± 1.8 | 2.05 ± 1.1 | 3.6 ± 0.57 | 0.65 ± 0.49 |  |  |  | > 10 | 99.5 ± 3.7 | 100 ± 4.4 | 91.1 ± 13 | 76.1 ± 0.42 | 73.4 ± 0.28 | 94.2 ± 6 | 108 ± 9.9 | 101 ± 3.4 | 91.95 ± 0.49 | 73.1 ± 8.9 | 98.8 ± 2.4 | 99.3 ± 2.8 | 101 ± 4.9 | 87.5 ± 3.1 | 61.8 ± 2.3 | 97.8 ± 5.2 | 97 ± 0.14 | 94.8 ± 6.2 | 96.6 ± 1.1 | 81.3 ± 0.14 | 0 | 97.9 | 128 | 146 | 148 | 144 | > 10
O=C1NC(=O)/C(=C/c2cccc(C(F)(F)F)c2)S1 [SMI-4a] | 0 | 0 |  | 0 | > 10 | > 10 |  | > 10 | 104 | 101 | 99.1 | 101 | 95.9 | 96.4 | 112 | 91 | 97.4 | 105 |  |  |  |  |  | 97.7 | 101 | 105 | 104 | 92.7 | 0 | 101 | 98.1 | 95.4 | 100 | 97.4 | > 10
NCCCNCCSP(=O)(O)O [amifostine] | 0 | 0 |  | 0 | > 10 | > 10 |  | > 10 | 104 | 108 | 106 | 97.3 | 102 | 103 | 100 | 96.6 | 93 | 98.2 |  |  |  |  |  | 88.8 | 100 | 86.4 | 100 | 92.7 | 0 | 95.8 | 101 | 101 | 100 | 98 | > 10
N#Cc1ccc(Oc2ccc3c(c2)COB3O)cc1 [crisaborole] | 0 | 0 |  | 0 | > 10 | > 10 |  | > 10 | 103 | 105 | 101 | 102 | 98.1 | 106 | 105 | 112 | 104 | 95.8 |  |  |  |  |  | 104 | 104 | 107 | 98.8 | 101 | 0 | 89.8 | 94.6 | 96.7 | 94.3 | 108 | > 10
COc1ccc2[nH]cc(CCNC(C)=O)c2c1 [melatonin] |  |  |  | 0 |  |  |  | > 10 |  |  |  |  |  |  |  |  |  |  |  |  |  |  |  | 107 | 88.8 | 101 | 102 | 99.5 | 0 | 101 | 105 | 96.8 | 109 | 105 | > 10
O=S(=O)(O)CCS [mesna] | 0 |  |  | 0 | > 10 |  |  | > 10 | 103 | 102 | 107 | 98.5 | 101 |  |  |  |  |  |  |  |  |  |  | 114 | 102 | 104 | 97.2 | 104 | 0 | 98.4 | 91.8 | 104 | 95.9 | 103 | > 10
CCOC(=O)CC(=O)N1CCSC1COc1ccccc1OC (stereo not drawn) [moguisteine] | 0 | 0 |  | 0 | > 10 | > 10 |  | > 10 | 99.7 | 101 | 100 | 105 | 105 | 93.7 | 97 | 99.2 | 112 | 104 |  |  |  |  |  | 98.6 | 98.3 | 96.3 | 105 | 98.4 | 0 | 99.2 | 103 | 99.3 | 97.6 | 92.8 | > 10
Cc1cn(-c2cc(NC(=O)c3ccc(C)c(Nc4nccc(-c5cccnc5)n4)c3)cc(C(F)(F)F)c2)cn1 [nilotinib] | 0 |  |  | 0 | > 10 |  |  | > 10 | 107 | 98.2 | 103 | 103 | 106 |  |  |  |  |  |  |  |  |  |  | 101 | 114 | 97.9 | 106 | 88.1 | 0 | 98.8 | 106 | 111 | 90.1 | 100 | > 10
CC(C)=CCC/C(C)=C/CC/C(C)=C/C=C/C(C)=C/C(=O)O [peretinoin] | 0 | 0 |  | 0 | > 10 | > 10 |  | > 10 | 101 | 96.1 | 106 | 93.3 | 104 | 101 | 94.3 | 90.9 | 103 | 104 |  |  |  |  |  | 104 | 98.9 | 101 | 97.9 | 102 | 0 | 107 | 104 | 105 | 114 | 97.6 | > 10
COc1cc(NS(=O)(=O)c2ccc(N)cc2)nc(OC)n1 [sulphadimethoxine] | 0 | 0 |  | 0 | > 10 | > 10 |  | > 10 | 100 | 97.8 | 98.8 | 103 | 97.5 | 106 | 108 | 122 | 98.9 | 105 |  |  |  |  |  | 109 | 99.9 | 103 | 100 | 99.9 | 0 | 103 | 90.3 | 91.8 | 98.9 | 94 | > 10
S=P(N1CC1)(N1CC1)N1CC1 [thiotepa] | 0 | 0 |  | 0 | > 10 | > 10 |  | > 10 | 108 | 98.9 | 106 | 97.3 | 102 | 104 | 96.6 | 102 | 100 | 107 |  |  |  |  |  | 94.7 | 101 | 94.8 | 98.5 | 91.1 | 0 | 91.8 | 95.7 | 97.5 | 90.2 | 89.5 | > 10
